Counter-ions that a name gives are not always drawn.
Experiments:
[1] = tested on: 6-hydroxydopamine-lesioned rats; test: turning behavior test in 6-hydroxydopamine-lesioned rats; type: in vivo, rat; details: for Average Number of Turns/rat: first 15 minutes after end of latency period
Method: In this test, nigro-neostriatal-lesioned rats are employed, which are prepared by the procedure of Ungerstedt and Arbuthnott, Brain Res, 24, 485 (1970). A compound having dopamine agonist activity causes the rats to turn in circles contralateral to the side of the lesion. After a latency period, which varies from compound to compound, the number of turns is counted over a 15-minute period.
The compounds were dissolved in water and the aqueous solution injected into the rat by the intraperitoneal route.

prolactin [2] = test: inhibition of prolactin secretion in reserpine-treated male rats; type: in vivo, rat (Sprague-Dawley); design: Serum Prolactin Level: unit not given here; details: for Percent Inhibition of Serum Prolactin: vs. control of same experiment
Method: Adult male rates of the Sprague-Dawley strain weighing about 200 g. were housed in an air-conditioned room with controlled lighting (lights on 6 a.m.-8 p.m.) and fed lab chow and water ad libitum. Each rat received an intraperitoneal injection of 2.0 mg. of reserpine in aqueous suspension 18 hours before administration of the ergoline derivative. The purpose of the reserpine was to keep prolactin levels uniformly elevated. The compounds under test were dissolved in 10 percent ethanol at a concentration of 10 mcg.ml. and were injected intraperitoneally at a standard dose of 50 mcg/kg. Each compound was administered to a group of 10 rats, and a control group of 10 intact males received an equivalent amount of 10 percent ethanol. One hour after treatment all rats were killed by decapitation, and 150 μl aliquots of serum were assayed for prolactin. The results were evaluated statistically using Student's "t" test to calculate the level of significance, "p", of the changes in prolactin level.
The difference between the prolactin level of the treated rats and prolactin level of the control rats, divided by the prolactin level of the control rats gives the percent inhibition of prolactin secretion attributable to the compounds of this invention. In the table, column 1 gives the name of the compound; column 2, the prolactin level for each group of rats; column 3, the percent prolactin inhibition; and column 4, the level of significance. The data were collected from three separate experiments, each with its own control, and Table 2 sets forth the results obtained by experiment.

[3] = in words; cited from earlier work
prolactin [4] = details: in words; cited from earlier work
dopamine receptors [5] = details: in words; cited from earlier work
dopamine receptors [6] = test: inhibition of high affinity binding of tritiated dopamine to dopamine receptors in membranes from striatal synaptosomes; design: species or system bovine; details: in words
serotonin = serotonin agonism; details: in words
Parkinsonism = details: in words; cited from earlier work
[7] = 50 mcg/kg i.p., one hour after treatment

Structure (SMILES)	% of Rats Exhibiting Turning Behavior ([1]; IP dose 1 mg/kg)	Duration of Effect ([1]; IP dose 1 mg/kg)	Latency of Effect ([1]; IP dose 1 mg/kg)	Percent Inhibition of Serum Prolactin (prolactin [2]; [7])	further results
CCCN1C[C@H](C[S+](C)[O-])C[C@@H]2c3cccc4[nH]cc(c34)C[C@H]21 (stereo partly drawn) [D-6-n-propyl-8β-methylsulfinylmethylergoline mesylate]	100%	1 h	7 min	92%	Average Number of Turns/rat ([1]; IP dose 1 mg/kg): 65 Turns/rat; Serum Prolactin Level (prolactin [2]; 50 mcg/kg i.p., one hour after treatment, reserpine-treated male rats): 3.3
CCCN1C[C@H](CSC)C[C@@H]2c3cccc4[nH]cc(c34)C[C@H]21 [D-6-n-propyl-8β-methylmercaptomethylergoline methanesulfonate]	–	≥ 24 h	–	–	relative potency in the turning behavior test ([1]; vs. corresponding D-6-methyl derivative, dose response curves): about 30 times; relative potency as a prolactin inhibitor (prolactin [2]; vs. corresponding D-6-methyl compound, dose response curves): about 100 times
N[C@@H](Cc1ccc(O)c(O)c1)C(=O)O [Example 1-dopa, 1-dihydroxyphenylalanine]	–	–	–	–	metabolism [3]: rapidly metabolized
CC(C)[C@H]1C(=O)N2CCC[C@H]2[C@]2(O)O[C@](NC(=O)[C@@H]3C=C4c5cccc6[nH]cc(c56)C[C@H]4N(C)C3)(C(C)C)C(=O)N12 [ergocornine]	–	–	–	–	activity as prolactin inhibitors (prolactin [4]): activity as prolactin inhibitors; dopamine receptor stimulation (dopamine receptors [5]): stimulate dopamine receptors
CCCN1C[C@H](CSC)C[C@@H]2c3cccc4[nH]cc(c34)C[C@H]21 [D-6-n-Propyl-8β-methylmercaptomethylergoline]	–	–	–	–	inhibition of high affinity binding of tritiated dopamine (dopamine receptors [6]): extremely potent inhibitors; serotonin agonist / antagonist activity (serotonin): serotonin agonists rather than serotonin antagonists
CCN1C[C@H](CSC)C[C@@H]2c3cccc4[nH]cc(c34)C[C@H]21 [D-6-ethyl-8β-methylmercaptomethylergoline mesylate]	100%	≥ 2 h	9 min	91%	–
CCCN1C[C@H](CSC)C[C@@H]2c3cccc4[nH]c(Br)c(c34)C[C@H]21 [D-2-bromo-6-n-propyl-8β-methylmercaptomethylergoline mesylate]	100%	1 h	5 min	89%	Average Number of Turns/rat ([1]; IP dose 1 mg/kg): 71 Turns/rat
CC(C)C[C@H]1C(=O)N2CCC[C@H]2[C@]2(O)O[C@](NC(=O)[C@@H]3C=C4c5cccc6[nH]c(Br)c(c56)C[C@H]4N(C)C3)(C(C)C)C(=O)N12 (stereo in doubt) [2-bromo-α-ergokryptine]	–	–	–	–	activity as prolactin inhibitors (prolactin [4]): activity as prolactin inhibitors; dopamine receptor stimulation (dopamine receptors [5]): stimulate dopamine receptors; usefulness in the treatment of Parkinsonism (Parkinsonism): useful in the treatment of Parkinsonism
CSC[C@@H]1C[C@@H]2c3cccc4[nH]cc(c34)C[C@H]2N(C)C1 [D-6-methyl-8β-methylmercaptomethylergoline mesylate, reference compound]	50%	–	–	58%	Duration of Effect in Hours ([1]; IP dose 1 mg/kg): ~ 2 Hours; Average Number of Turns/rat ([1]; IP dose 1 mg/kg): 51 Turns/rat
CCCN1CC(CSC)=C[C@@H]2c3cccc4[nH]cc(c34)C[C@H]21 [D-6-n-propyl-8-methylmercaptomethyl-8-ergolene maleate]	100%	1 h	4 min	91%	–
CC(C)C1C(=O)N2CCCC2C2(O)OC(NC(=O)C3CC4c5cccc6[nH]cc(c56)CC4N(C)C3)(C(C)C)C(=O)N12 (stereo not shown) [dihydroergocornine]	–	–	–	–	activity as prolactin inhibitors (prolactin [4]): activity as prolactin inhibitors
CN1C[C@H](CC#N)C[C@@H]2c3cccc4[nH]c(Cl)c(c34)C[C@H]21 [legotrile]	–	–	–	–	usefulness in the treatment of Parkinsonism (Parkinsonism): useful in the treatment of Parkinsonism
CCCN1C[C@H](COC)C[C@@H]2c3cccc4[nH]cc(c34)C[C@H]21 [D-6-n-propyl-8β-methoxymethylergoline methanesulfonate]	100%	≥ 2 h	6 min	96%	–
CCCN1C[C@H](CSC)C=C2c3cccc4[nH]cc(c34)C[C@H]21 [D-6-n-propyl-8β-methylmercaptomethyl-9-ergolene]	100%	≥ 2 h	4 min	81%	Average Number of Turns/rat ([1]; IP dose 1 mg/kg): 200 Turns/rat
CN1CC(CC#N)C[C@@H]2c3cccc4[nH]cc(c34)C[C@H]21 (stereo partly drawn) [D-6-methyl-8-cyanomethylergoline]	–	–	–	–	activity as prolactin inhibitors (prolactin [4]): activity as prolactin inhibitors
